Source: patent US20260306639A1, “DEGRADER FOR DECOMPOSING CMET PROTEIN, AND PHARMACEUTICAL COMPOSITION COMPRISING SAME” (INNOCURE THERAPEUTICS, INC., priority 2022, published 2026)

Key:
SNU-638 = assay: cell viability / antiproliferative activity (WST-8), SNU-638 cells; format: cell-based, human; settings: Homo sapiens; SNU-638 gastric cancer cells; 72 hours
Experimental: (§1) c-MET overexpressing human gastric cancer cell lines [MKN45] and [SNU638] were cultured in RPMI medium with 10% fetal bovine serum, penicillin (100 U/ml), and streptomycin (100 mg/ml), and c-MET exon 14 skipping mutant human gastric cancer cell lines [Hs746T] were cultured in DMEM media. The c-MET overexpressing human lung cancer cell line EBC-1 was cultured in MEM media with the addition of 10% fetal bovine serum, penicillin (100 U/ml), and streptomycin (100 mg/ml). […] The compound synthesized in accordance with the present invention was prepared with a raw material solution of 10 mM dissolved in DMSO (dimethyl sulfoxide), and was sequentially diluted and processed.
(§2) In order to observe the inhibitory activity on cell growth, cells were dispensed in a 96-well plate at a concentration of 5,000 cells/well, and then treated with the compound prepared at various concentrations for 72 hours. The viability of the cells was calculated using GraphicPad Prism 8.0 software by adding 10 ml per well of WST-8 (water soluble tetrazolium salt) sample, which reacts with dehydrogenase present in the electron transport system of mitochondria to produce formazon, incubated for 2 hours, and measured absorbance at 450 nm.

c-MET = c-MET protein degradation (Simple Western), MKN-45 cells; format: cell-based, human; settings: MKN-45 gastric cancer cells, c-MET overexpressing; 24 hours
Outline: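 Cells at 2×10^5 cells/well exposed to compound for 24 h (gastric lines) or 48 h (lung lines). Lysates (3 μg protein) probed for c-MET by capillary Simple Western, normalized to GAPDH and expressed as % of 0.1% DMSO control. DC50 is the concentration giving 50% protein reduction.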

MKN-45 = assay: cell viability / antiproliferative activity (WST-8), MKN-45 cells; format: cell-based; settings: Homo sapiens; MKN-45 gastric cancer cells; 72 hours
Experimental: as §1, §2

IC50 (SNU-638) | DC50 (c-MET) | IC50 (MKN-45) | SMILES
< 100 nM |  |  | N#Cc1cccc(-c2ccc(=O)n(Cc3cccc(-c4ncc(OCC5CCN(CCOCCOCCOCC#Cc6cccc7c(=O)n(C8CCC(=O)NC8=O)ncc67)CC5)cn4)c3)n2)c1 (stereo not shown) [ICT-0001307]
< 100 nM |  |  | Cc1nn(C2CCC(=O)NC2=O)c(=O)c2cc(F)c(N3CCN(CC4CCN(CCN5CCC(COc6cnc(-c7cccc(Cn8nc(-c9cccc(C#N)c9)ccc8=O)c7)nc6)CC5)CC4)CC3)cc12 (stereo not shown) [ICT-0001318]
< 100 nM |  |  | Cc1nn(C2CCC(=O)NC2=O)c(=O)c2cc(N3CCN(CC4CCN(CCN5CCC(COc6cnc(-c7cccc(Cn8nc(-c9cccc(C#N)c9)ccc8=O)c7)nc6)CC5)CC4)CC3)ccc12 (stereo not shown) [ICT-0001321]
 | < 100 nM | < 100 nM | Cc1nn(C2CCC(=O)NC2=O)c(=O)c2cc(N3CCN(CCCC(=O)N4CCC(COc5cnc(-c6cccc(Cn7nc(-c8cccc(C#N)c8)ccc7=O)c6)nc5)CC4)CC3)ccc12 (stereo not shown) [ICT-0001216, 3-(1-(3-(5-((1-(4-(4-(3-(2,6-dioxopiperidin-3-yl)-1-methyl-4-oxo-3,4-dihydroptalazine-6-yl)piperazine-1-il)butanoyl)piperidine-4-il)methoxy)pyrimidine-2-yl)benzyl)6-oxo-1,6-dihydropyridazine-3-yl)benzonitrile]
 | 100 to 1000 nM | 100 to 1000 nM | Cc1nn(C2CCC(=O)NC2=O)c(=O)c2ccc(NCCOCCOCCOCCOCC(=O)N3CCC(COc4cnc(-c5cccc(Cn6nc(-c7cccc(C#N)c7)ccc6=O)c5)nc4)CC3)cc12 (stereo not shown) [ICT-0001089, 3-(1-(3-(5-((1-(14-((2-(2,6-dioxopiperidine-3-yl)-4-methyl-1-oxo-1,2-dihydrophthalazine-6-yl)amino)3,6,9,12-tetratetradecanoyl)piperidine-4-yl)methoxy)pyrimidin-2-yl)benzyl)6-oxo-1,6-dihydropyridazine-3-yl)benzonitrile]
 | 100 to 1000 nM | < 100 nM | Cn1cc(-c2cnc3c(nnn3CC3CN(c4ncc(-c5ccc(CN6CCC(CN7CCN(c8ccc9c(=O)n(C%10CCC(=O)NC%10=O)ncc9c8)CC7)CC6)cc5)cn4)CCO3)n2)cn1 [ICT-0000978, 3-(6-(4-((1-(4-(2-((S)-2-((5-(1-methyl-1H-pyrazole-4-yl)-1H-[1,2,3]triazolo[4,5-b]pyrazine-1-yl)methyl)morpholino)pyrimidine-5-il)benzyl)piperidine-4-il)methyl)piperazine-1-yl)1-oxopthalazine-2(1H)-yl)piperidine-2,6-dione]
 | 100 to 1000 nM | < 100 nM | N#Cc1cccc(C2=NC(Cc3cccc(-c4ncc(OCC5CCN(CC(=O)N6CCN(CC7CCN(c8ccc9c(=O)n(C%10C=CC(=O)NC%10=O)ncc9c8)CC7)CC6)CC5)cn4)c3)C(=O)C=C2)c1 (stereo not shown) [ICT-0000975]
 | 100 to 1000 nM | 100 to 1000 nM | Cn1cc(-c2cnc3c(nnn3C[C@@H]3CN(c4ncc(-c5ccc(CN6CCN(C(=O)COCCOCCNc7ccc8c(=O)n(C9CCC(=O)NC9=O)ncc8c7)CC6)cc5)cn4)CCO3)n2)cn1 (stereo partly shown) [ICT-0000935]
 | < 100 nM | 100 to 1000 nM | Cc1nn(C2CCC(=O)NC2=O)c(=O)c2ccc(NCCOCCOCCOCC(=O)N3CCC(COc4cnc(-c5cccc(Cn6nc(-c7cccc(C#N)c7)ccc6=O)c5)nc4)CC3)cc12 (stereo not shown) [ICT-0001088]

SMILES | IC50 (SNU-638) | DC50 (c-MET) | IC50 (MKN-45)
Cc1nn(C2CCC(=O)NC2=O)c(=O)c2ccc(N3CCN(CC4CCN(CC(=O)N5CCC(COc6cnc(-c7cccc(Cn8nc(-c9cccc(C#N)c9)ccc8=O)c7)nc6)CC5)CC4)CC3)cc12 (stereo not shown) [ICT-0001272] |  | < 100 nM | < 100 nM
Cc1nn(C2CCC(=O)NC2=O)c(=O)c2cc(N3CCN(C(=O)CN4CCC(COc5cnc(-c6cccc(Cn7nc(-c8cccc(C#N)c8)ccc7=O)c6)nc5)CC4)CC3)ccc12 (stereo not shown) [ICT-0001214, 3-(1-(3-(5-((1-(2-(4-(3-(2,6-dioxopiperidin-3-yl)-1-methyl-4-oxo-3,4-dihydropetalazine-6-yl)piperazine-1-il)acetyl)piperidine-4-il)methoxy)pyrimidine-2-yl)benzyl)6-oxo-1,6-dihydropyridazine-3-yl)benzonitrile] |  | < 100 nM | < 100 nM
